Experimental findings from patent US20210317092A1 (BAYER PHARMA AKTIENGESELLSCHAFT, priority 2016, published 2021) are described below.

The test relates to CFA-induced mechanical hyperalgesia. The experiment in a line: Rat CFA in vivo model (mechanical hyperalgesia, paw withdrawal threshold). The settings on record: dosed 1 h before CFA and 24 h later, mean ± S.D. The protocol:
Male Sprague Dawley rats were used. Mechanical hyperalgesia was induced by injecting 25 μL of Complete Freund's Adjuvant (CFA) into the plantar surface of one hind paw. Mechanical hyperalgesia was measured using the Pressure Application Measurement apparatus (Ugo Basile, Gemonio, Italy). Briefly, a linearly increasing pressure was applied to an area of ˜ 50 mm2 of the plantar side of the hind paw until a behavioural response (paw withdrawal) was observed or until the pressure reached 1000 gf. The pressure at which the behavioural response occurred was recorded as the “Paw Withdrawal Threshold” (PWT). Both CFA-injected and contralateral PWTs were determined for each rat, in each treatment group and for the vehicle group at each time point of the studies. Each compound example was administered orally in the vehicle solution of dimethylsulfoxide (DMSO), Polyethylenglycol (PEG) and 2-Hydroxypropyl-beta-cyclodextrin (HPCD) (v/v/v=3:20:77). Rats received a first dose as specified in Table 3 in a solution of 5 mL/kg bodyweight application volume 1 hour before CFA injection and a second dose 24 hours later. Mechanical hyperalgesia testing was performed approximately 2 hours before CFA injection, then 2 and 4 hours after the second dose of compound example (i.e. 26 and 28 hours after CFA treatment). Animals in the vehicle group were treated in the identical way like the other groups but without compound in the orally applied solution. Data were expressed as the mean±S.D. Area Under the Curve (AUC) of PWTs (defined in table 3 as “AUC of Paw withdrawal threshold (AUC 0-4 hours) post-vehicle” with respect to vehicle group or “AUC of Paw withdrawal threshold (AUC 0-4 hours) post-drug” with respect to the compound example). Data were analysed by performing a one-way ANOVA followed by a Dunnett's post hoc test. For p values less than 0.05 the results were deemed to be statistically significant.

Structures are written as SMILES.

`CCOc1ccc(-c2ccc(NC(=O)C3(c4cccc(Cl)c4)CC3)cc2-c2nnn[nH]2)cn1` [Example 253, 1-(3-Chlorophenyl)-N-[4-(6-ethoxypyridin-3-yl)-3-(1H-tetrazol-5-yl)phenyl]cyclopropanecarboxamide]: the “AUC of Paw withdrawal threshold (AUC 0-4 hours) post-drug” value was 1415 ± 274 gf (*) (3 mg/kg p.o., p < 0.05 vs vehicle (1083 ± 93 gf)); 1439 ± 310 gf (**) (10 mg/kg p.o., p < 0.01 vs vehicle (1083 ± 93 gf)); 1649 ± 301 gf (***) (30 mg/kg p.o., p < 0.0001 vs vehicle (1083 ± 93 gf)).
